Reference: patent US8017828B2, “Utilization of rare sugars in plant or microorganism” (Shikoku Research Institute Incorporated, priority 2004, dated 2011)

How the values were obtained:
[1] = test system: Fusarium oxysporum, Glomerella cingulata, Verticillium dahliae and Botrytlis cinerea; test: Mycelial elongation of plant pathogenic bacteria on agar with rare sugar; format: cell-based; details: 0.05% (w/v) in agar medium, 23° C., 7 days
Protocol: By using as targets, Fusarium oxysporum, Glomerella cingulata, Verticillium dahliae and Botrytlis cinerea, which are typical plant pathogenic bacteria, an effect of a rare sugar on mycelial elongation was examined.
As the test bacterial strains, IFO 31213 strain, IFO 6425 strain, IFO 9765 strain and IFO 9760 strain were used.
After the cultivation, the length of the extending mycelium was measured.

[2] = test system: Aspergillus niger, Cladosporium cladosporioides and Penicillium chrysogenum; test: Mycelial elongation of filamentous fungi on agar with rare sugar; format: cell-based; details: 0.05% (w/v) in agar medium, 25° C., 4 days
Protocol: By using as targets, Aspergillus niger, Cladosporium cladosporioides and Penicillium chrysogenum, which are typical filamentous fungi and generally seen in a living environment, an effect of a rare sugar on mycelial elongation was examined.
As the test fungal strains, NBRC 4066 strain, NBRC 4459 strain and NBRC 4626 strain were used.
Each test fungal strain was cultured on a potato dextrose agar medium at 25° C. for 7 days, and one in which the mycelium extended over the surface of the dish was pushed out along with the agar medium in such a manner that the agar medium was in a disc form with a diameter of 1.1 cm, which was placed at the center of a dish filled with an agar medium (1% Bacto agar) supplemented with any of a variety of rare sugars (allitol, D-altrose, L-mannose, L-galactose, D-tagatose, D-sorbose, D-psicose, D-allose, D-glucose and D-fructose) at 0.05% (w/v) and cultured at 25° C. for 4 days. After the cultivation, the length of the mycelium extending on the surface of the culture medium was measured. Two culture media were prepared for each test plot, and the mycelial length represents the average thereof.

chitinase gene = test: Northern blotting of chitinase gene expression in sprayed cut leaves of rough lemon; format: in vivo; details: 0.5 mM sprayed on cut leaves, 2 to 48 hours
Protocol: Cut leaves of rough lemon were treated by spraying each of 0.5 mM L-psicose, L- & D-tagatose and D-sorbose thereon and were let stand for 2, 4, 6, 12, 24 and 48 hours at 24° C. under the dark condition in a moist chamber. Then, from the treated leaves, total RNA was extracted and the expression of genes of lipoxygenase and chitinase was analyzed by Northern blotting. The assays and analyses were repeated at least 3 times in all the treated plots, and equivalent results were obtained.

[3] = test system: Brassica rapa var. amplexicaulis (variety: “Haru Ichiban”); test: Foliar spraying of sugar on Brassica rapa var. amplexicaulis; format: in vivo; details: 0.5% solution sprayed
Source text: Brassica rapa var. amplexicaulis is a vegetable in the Brassica family, and flower buds are harvested and used. As the same species of vegetables, broccoli, cauliflower and the like are exemplified, which are important horticultural crops. As for such a vegetable, development of flower buds has a large effect on the crop yield. Therefore, during the house cultivation of Brassica rapa var. amplexicaulis (variety: “Haru Ichiban”), foliar spraying of a sugar solution at a concentration of 0.5% (w/v) was carried out and effects on the growth and the development of flower buds were examined. The seeds of Brassica rapa var. amplexicaulis were sown in a 128-cell tray on Oct. 23, 2003 and raised for about 20 days. Then, the raised seedlings were transplanted for permanent planting with a planting distance of 40 cm on two rows with an inter row space of 50 cm in separate beds filled with soil for cultivation “Hana to Yasai no Tsuchi (garden soil for flowers and vegetables)” (Kurokawa Shubyo En) on Nov. 12, 2003. The cultivation was carried out by a simple fertigation system, and irrigation was carried out for 1 hour on a daily basis with a 2,000-fold dilution of Hyponex through an irrigation tube. The cultivation was carried out in a vinyl house without heating with side windows open. From Dec. 18, 2003, water or a 0.5% (w/v) sugar solution was sprayed onto the whole plant on a three times weekly basis. As for the types of sugars, D-glucose, D-fructose and D-psicose were used and five plants were cultivated for each test plot. On Feb. 23, 2004, three plants of medium size were harvested and a survey was carried out. The survey items were plant length, stem diameter, number of lateral buds, terminal bud weight, total weight of lateral buds and the like.

Salsola komarovii = test: Seed germination, short-time and continuous treatment (Experiment 2); format: in vivo; details: immersed in 1% solution for 24 hours, in the end; DW 28%
Protocol: In order to clarify an effect of a short-time treatment, 50 seeds of Salsola komarovii, tomato (Home Momotaro) and sunny lettuce (Red Wave), and 20 seeds of morning glory (Tairin Zaki Kongo) were immersed in any of deionized water, 1% D-psicose, 1% D-allose and 1% L-galactose for 24 hours (25° C., dark), respectively, then, they were lightly washed with deionized water. Then, the seeds were sown in a dish with a diameter of 9 cm having a filter paper placed therein, and germinated under the same condition by poring 5 to 10 ml of deionized water therein. Further, for the comparison, a continuous treatment with 1% D-psicose was carried out in accordance with the same procedure.

[4] = test system: Pythium ultimum IFO 32426 strain; test: Oospore formation of Pythium ultimum in sugar solution; format: cell-based; details: 0.05% (w/v) sugar solution, 23° C., 4 days
Protocol: With regard to Pythium ultimum that causes damping-off of spinach and the like, an effect of a rare sugar on oospore formation was examined.
First, as the Pythium ultimum, IFO 32426 strain was used, and static culture thereof was carried out with 200 ml of V8 medium at 23° C. for 1 week. The resulting mycelial mat was well washed with sterile water and divided into 16 equal parts with forceps. This mycerial body was disentangled uniformly to form a small piece and immersed in 20 ml of a sugar solution at a concentration of 0.05% (w/v) and let stand at 23° C. for 4 days. […] Further, the same experiment was carried out using Pythium zingiberum IFO 30817 strain.

[5] = test system: Arabidopsis thaliana Lan dsberg erecta (LER); test: Germination of Arabidopsis thaliana with 8 ketoses; format: in vivo; details: 100 mM aqueous solution
Protocol: An effect of 8 types of ketoses on germination of Arabidopsis thaliana LER series which was an experimental plant was examined.
Two sheets of filter paper were placed in a dish with a diameter of 3.5 cm, and 30 seeds of Arabidopsis thaliana Lan dsberg erecta (LER) were sown per dish, and 0.5 mL of a treatment liquid was poured therein. Then, the dishes were placed in an environment control chamber under the condition of a constant temperature of 25° C. and 24-hour day length (fluorescent lamp, 70 μmol/m^2/s). After the sowing, a survey was carried out with regard to the number of seeds that germinated at 24-hour interval. As the treatment liquid, 100 mM, 10 mM and 1 mM aqueous solutions of any of D-fructose, D-psicose, D-tagatose, D-sorbose, L-fructose, L-psicose, L-tagatose and L-sorbose, and distilled water were used. The procedure was repeated three times for the respective treatment liquids.

[6] = test system: cherry tomato plant “mini carol”; test: Hydroponic growth of cherry tomato with 0.05 or 0.5 mM sugar, 10 days; format: in vivo; details: 0.5 mM
Protocol: Subsequently, a cherry tomato plant “mini carol” was transplanted for permanent planting to a hydroponic apparatus, and a total of 7 treated plots in which a plot without addition (control plot) was added to 6 treated plots with the use of a nutrient solution supplemented with 0.05 mM or 0.5 mM D-psicose, D-fructose or mannitol were prepared. A survey was carried out with regard to the growth at 10 days after the permanent planting. […] The stem diameter was the smallest in the case of 0.5 mM D-psicose. The number of leaves was the smallest in the case of 0.5 mM D-psicose and 0.5 mM mannitol. The root length was the smallest in the case of 0.5 mM psicose.

[7] = test system: Fusarium oxysporum (IFO 31213 strain); format: in vivo, tomato plant (variety: “House Momotaro”)
Protocol: By using a tomato plant and a strain of Fusarium oxysporum, which is a typical pathogenic bacterium of tomato, an effect of D-psicose during infection in a stage of raising seedlings thereof was examined.
To be more specific, seeds of a tomato plant (variety: “House Momotaro”) were subjected to an immersion treatment by immersing them in a 0.01% (w/v) D-psicose solution or a 0.007% (w/v) probenazole solution for 15 minutes while stirring slowly, followed by air-drying on sterile gauze, and then used as treated seeds. In the medium culture for raising seedlings (pete:pearlite:vermiculite=2:1:1), 0.01% (w/v) D-psicose or 0.007% (w/v) probenazole was mixed, and the soil was placed in black polypot plant containers with a diameter of 9 cm, and then, 4 seeds of the above treated seeds were sown in each pot. The seeds (20 seeds in total) were sown in 5 pots for each test plot. After sowing, the pots were placed in a growth chamber at 23° C. and 5,000 Lux (12-hour day length), and raising of seedlings was initiated. At 1 month and 2 months after the initiation of raising of seedlings, a suspension of mycelium of Fusarium oxysporum (IFO 31213 strain) was inoculated around the roots, whereby infection with Fusarium oxysporum was caused. After the inoculation of Fusarium oxysporum, the temperature was raised to 30° C., and cultivation was continued. At about 4 months after sowing, a survey was carried out with regard to the survival rate of plants, the conditions of browning of vascular bundles and roots, the stem diameter and the like.

SMILES: O=C[C@@H](O)[C@H](O)[C@H](O)[C@H](O)CO [D-altrose]
- inhibitory effect on mycelial elongation [1]: the highest inhibitory effect
- effect on mycelial elongation [2]: have an effect of inhibiting mycelial elongation

SMILES: O=C(CO)[C@@H](O)[C@@H](O)[C@H](O)CO [D-tagatose]
- induction of the expression of chitinase gene (chitinase gene): more strongly than D-psicose

SMILES: O=C[C@@H](O)[C@H](O)[C@H](O)[C@@H](O)CO [L-galactose]
- Terminal bud weight ([3]; control (water) 3.0): 9.6 g
- Stem diameter ([3]; control (water) 22.8): 21.7 mm
- Number of lateral buds ([3]; control (water) 32.3): 48.3
- Plant length ([3]; control (water) 49.3): 52.7 cm
- Total weight of lateral buds ([3]; control (water) 235.3): 250.6 g
- germination rate (Salsola komarovii): 34%
- oospore formation [4]: inhibited
- effect on mycelial elongation [2]: have an effect of inhibiting mycelial elongation

SMILES: O=C(CO)[C@@H](O)[C@@H](O)[C@@H](O)CO [L-psicose]
- inhibition of germination [5]: not clearly observed

SMILES: OC[C@@H](O)[C@@H](O)[C@H](O)[C@H](O)CO [mannitol, reference compound]
- number of leaves, rank among 7 treated plots [6]: the smallest

SMILES: C=CCOC1=NS(=O)(=O)c2ccccc21 [probenazole, reference compound]
- Vascular bundle browning ratio ([7]; seed immersion (0.01% D-psicose or 0.007% probenazole), no seed treatment 25%): 5%
- Stem diameter ([7]; seed immersion treatment): increased
